Data: US20120202756A1, “USE OF PRODRUGS TO AVOID GI MEDIATED ADVERSE EVENTS” (priority 2009, published 2012)
Counter-ions that a name gives are not always drawn. Like-named read-outs stand apart in the source and are kept apart here.

Legend:
[1] = test system: Bifidobacterium adolescentis; test: MIC, clindamycin prodrugs; assay type: cell-based
[2] = test system: Staphylococcus epidermidis; test: MIC, clindamycin prodrugs; assay type: cell-based
Clostridium perfringens = test: microbe, parasite or virus in culture; assay type: cell-based; conditions: for MIC: Clostridium perfringens
Veillonella spp. = conditions: clinical isolate
Campylobacter jejuni = test: MIC, clindamycin prodrugs; assay type: cell-based; conditions: for MIC: Campylobacter jejuni
Streptococcus oralis = conditions: antibiotic-susceptible clinical isolate
Enterococcus faecalis = conditions: ATCC 29212 antibiotic-susceptible type strain
[3] = test system: Prevotella melaninogenicus; test: MIC, clindamycin prodrugs; assay type: cell-based
Group G Streptococcus = conditions: antibiotic-susceptible clinical isolate
Clostridium sporogenes = test: MIC, clindamycin prodrugs; assay type: cell-based; conditions: ATCC 3584
Bifidobacterium longum = test: MIC, clindamycin prodrugs; assay type: cell-based
Listeria monocytogenes = conditions: antibiotic-susceptible clinical isolate
Veillonella parvula = test: MIC, clindamycin prodrugs; assay type: cell-based
Staphylococcusaureus = test: MIC, clindamycin prodrugs; assay type: cell-based
[4] = test system: Staphylococcus haemolyticus; test: MIC, clindamycin prodrugs; assay type: cell-based
Streptococcus agalactiae = conditions: antibiotic-susceptable clinical isolate
[5] = Stability in USP simulated gastric juice; assay type: in vitro ADME; conditions: USP SGF pH 1.1, pepsin […], prodrug 20 μg/mL
Text: To minimize the direct inhibitory action of this drug on gastric emptying/gut motility—and resultant nausea—the prodrug should not undergo premature chemical or enzymic cleavage back to the parent drug while within the gut lumen.

Prevotella oralis = conditions: clinical isolate
Campylobacter coli = test: MIC, clindamycin prodrugs; assay type: cell-based; conditions: for MIC: Campylobacter coli
[6] = test system: Porphyromonas endodontalis; conditions: clinical isolate
[7] = relative bioavailability of clindamycin vs dosing clindamycin itself, male rats, mean
Experimental: Serial tail vein blood samples were subsequently collected via an indwelling cannuala into EDTA tubes containing a stabilising cocktail (including 6 mg/mL NaF) to prevent post collection enzymic hydrolysis of the prodrug.

[8] = test system: Porphyromonas assacharolyticus; conditions: clinical isolate
Bifidobacterium dentium = test: MIC, clindamycin prodrugs; assay type: cell-based
Prevotella intermedia = conditions: clinical isolate
Streptococcus pneumoniae = test: MIC, clindamycin prodrugs; assay type: cell-based; conditions: for MIC: Streptococcus pneumoniae
[9] = test system: Bacteroides thetaiotamicron; test: MIC, clindamycin prodrugs; assay type: cell-based; conditions: for MIC: Bacteroides
Prevotella bivia = conditions: ATCC 29303
[10] = test system: Fusobacterium necrophorum; conditions: clinical isolate
[11] = test system: Peptostreptococcus micros; conditions: clinical isolate
Helicobacter pylori = test: MIC, clindamycin prodrugs; assay type: cell-based; conditions: for MIC: Helicobacter pylori
Streptococcus pyogenes = test: MIC, clindamycin prodrugs; assay type: cell-based
Group C Streptococcus = test: MIC, clindamycin prodrugs; assay type: cell-based
Veillonella atypical = test: MIC, clindamycin prodrugs; assay type: cell-based
Bacteroides fragilis = test: MIC, clindamycin prodrugs; assay type: cell-based; conditions: for MIC: Bacteroides fragilis
Propionibacterium acnes = test: MIC, clindamycin prodrugs; assay type: cell-based; conditions: for MIC: Cutibacterium acnes
Prevotella denticola = conditions: clinical isolate
Clostridium bifermentans = conditions: ATCC 638
[12] = test system: Peptostreptococcus magnus; conditions: clinical isolate
[13] = antibiotic susceptible clinical isolate
[14] = methicillin-resistant clinical isolate
[15] = antibiotic-susceptible clinical isolate
[16] = clinical isolate (second listed, r38)
[17] = Macrolide (MLS) resistant clinical isolate
[18] = read-out: Minimum inhibitory concentration

CCCC1CC(C(=O)NC(C(C)Cl)C2OC(SC)C(OC(=O)CCC(=O)N[C@H](C(=O)O)C(C)C)C(O)C2O)N(C)C1 (stereo partly drawn) [Clindamycin succinyl valine ester, Clindamycin-2-[succinyl-(S)-valine]ester trifluoroacetate]
4 mg/L: Minimum inhibitory concentration [2, 14] | Minimum inhibitory concentration (Clostridium bifermentans)
>64 mg/L: Minimum inhibitory concentration (Enterococcus faecalis) | Minimum inhibitory concentration (Clostridium sporogenes) | Minimum inhibitory concentration (Staphylococcusaureus; ATCC 43300 - methicillin-resistant type strain)
16 mg/L: Minimum inhibitory concentration (Listeria monocytogenes) | Minimum inhibitory concentration ([9]; ATCC 29741) | Minimum inhibitory concentration [12]
8 mg/L: Minimum inhibitory concentration (Bacteroides fragilis; ATCC 25285) | Minimum inhibitory concentration (Bacteroides fragilis; clinical isolate)
1 mg/L: Minimum inhibitory concentration (Clostridium perfringens; ATCC 13124) | Minimum inhibitory concentration (Clostridium perfringens; [15]) | Minimum inhibitory concentration (Group G Streptococcus) | Minimum inhibitory concentration (Veillonella parvula; NCTC 11810) | Minimum inhibitory concentration (Staphylococcusaureus; ATCC 25923 - antibiotic-susceptible type strain) | Minimum inhibitory concentration (Streptococcus agalactiae) | Minimum inhibitory concentration (Streptococcus pyogenes; [15]) | Minimum inhibitory concentration (Group C Streptococcus; [15]) | Minimum inhibitory concentration (Prevotella denticola)
0.25 mg/L: Minimum inhibitory concentration (Streptococcus oralis) | Minimum inhibitory concentration ([3]; clinical isolate (first listed, r37)) | Minimum inhibitory concentration [3, 16]
<1%: Simulated gastric juice (1 h, 37° C.) % active drug generated [5]
≦0.03 ug/mL: Minimum inhibitory concentration (Campylobacter jejuni; ATCC 33560) | Minimum inhibitory concentration (Campylobacter jejuni; clinical isolate) | Minimum inhibitory concentration (Prevotella oralis) | Minimum inhibitory concentration (Campylobacter coli; ATCC 33559) | Minimum inhibitory concentration (Campylobacter coli; clinical isolate) | Minimum inhibitory concentration (Helicobacter pylori; ATCC 43504) | Minimum inhibitory concentration (Helicobacter pylori; clinical isolate (r56)) | Minimum inhibitory concentration (Helicobacter pylori; clinical isolate (r57)) | Minimum inhibitory concentration (Helicobacter pylori; clinical isolate (r100)) | Minimum inhibitory concentration (Helicobacter pylori; clinical isolate (r101))
0.12 mg/L: Minimum inhibitory concentration [6] | Minimum inhibitory concentration [8] | Minimum inhibitory concentration (Prevotella intermedia) | Minimum inhibitory concentration [10]
32 mg/L: Minimum inhibitory concentration ([9]; NCTC 10582)
8%: Frel [7]
2 mg/L: Minimum inhibitory concentration [2, 13] | Minimum inhibitory concentration (Staphylococcusaureus; ATCC 29213 - antibiotic-susceptible type strain) | Minimum inhibitory concentration [4, 13] | Minimum inhibitory concentration [11] | Minimum inhibitory concentration (Streptococcus pyogenes; [17]) | Minimum inhibitory concentration (Veillonella atypical; NCTC 11830) | Minimum inhibitory concentration (Propionibacterium acnes) | Minimum inhibitory concentration (Propionibacterium acnes; clinical isolate MIC clindamycin 0.5 mg/L)
0.5 mg/L: Minimum inhibitory concentration ([1]; NCTC 11814) | Minimum inhibitory concentration (Veillonella spp.) | Minimum inhibitory concentration (Bifidobacterium longum; NCTC 11818) | Minimum inhibitory concentration (Bifidobacterium dentium; NCTC 11816) | Minimum inhibitory concentration (Streptococcus pneumoniae; ATCC 49619 antibiotic-susceptible type strain) | Minimum inhibitory concentration (Streptococcus pneumoniae; penicillin-susceptible clinical isolate) | Minimum inhibitory concentration (Prevotella bivia)

CCC[C@@H]1C[C@@H](C(=O)N[C@@H]([C@H]2O[C@H](SC)[C@H](O)[C@@H](O)[C@H]2O)[C@H](C)Cl)N(C)C1 [Clindamycin, clindamycin, reference compound]
≦0.03 ug/mL: Minimum inhibitory concentration [3, 16] | Minimum inhibitory concentration (Helicobacter pylori; clinical isolate (r56)) | Minimum inhibitory concentration (Helicobacter pylori; clinical isolate (r57)) | Minimum inhibitory concentration (Helicobacter pylori; clinical isolate (r101)) | Minimum inhibitory concentration (Streptococcus pyogenes; [17])
> 64 mg/L: MIC (Staphylococcusaureus; read-out: Minimum inhibitory concentration, ATCC 43300 - methicillin-resistant type strain)
2 mg/L: MIC ([9]; ATCC29741, read-out: Minimum inhibitory concentration)
≤ 0.03 mg/L: MIC ([1]; Bifidobacterium adolescentis, NCTC11814, read-out: Minimum inhibitory concentration) | MIC (Campylobacter jejuni; ATCC33560, read-out: Minimum inhibitory concentration) | MIC (Campylobacter jejuni; [18]) | MIC ([3]; Prevotella, read-out: Minimum inhibitory concentration) | MIC (Veillonella parvula; Veillonella parvula, NCTC11810, read-out: Minimum inhibitory concentration) | MIC (Campylobacter coli; ATCC33559, read-out: Minimum inhibitory concentration) | MIC (Bifidobacterium dentium; Bifidobacterium dentium, NCTC11816, read-out: Minimum inhibitory concentration) | MIC (Streptococcus pneumoniae; ATCC49619, read-out: Minimum inhibitory concentration) | MIC (Streptococcus pneumoniae; [18]) | MIC (Helicobacter pylori; ATCC43504, read-out: Minimum inhibitory concentration) | MIC (Helicobacter pylori; [18]) | MIC (Streptococcus pyogenes; Streptococcus pyogenes, read-out: Minimum inhibitory concentration) | MIC (Group C Streptococcus; Streptococcus, read-out: Minimum inhibitory concentration)
1 mg/L: MIC ([9]; NCTC10582, read-out: Minimum inhibitory concentration)
32 mg/L: MIC (Clostridium sporogenes; Clostridium sporogenes, ATCC3584, read-out: Minimum inhibitory concentration)
0.5 mg/L: MIC (Bacteroides fragilis; ATCC25285, read-out: Minimum inhibitory concentration)
0.06 mg/L: MIC (Clostridium perfringens; ATCC13124, read-out: Minimum inhibitory concentration) | MIC (Clostridium perfringens; [18]) | MIC (Staphylococcusaureus; read-out: Minimum inhibitory concentration, ATCC 25923 - antibiotic-susceptible type strain) | MIC (Staphylococcusaureus; read-out: Minimum inhibitory concentration, ATCC 29213 - antibiotic-susceptible type strain) | MIC ([4]; Staphylococcus haemolyticus, read-out: Minimum inhibitory concentration) | MIC (Campylobacter coli; [18]) | MIC (Veillonella atypical; Veillonella, NCTC11830, read-out: Minimum inhibitory concentration) | MIC (Propionibacterium acnes; read-out: Minimum inhibitory concentration, clinical isolate MIC clindamycin […])
0.12 mg/L: MIC ([2]; Staphylococcus epidermidis, read-out: Minimum inhibitory concentration) | Minimum inhibitory concentration [2, 14] | MIC (Bifidobacterium longum; Bifidobacterium longum, NCTC11818, read-out: Minimum inhibitory concentration) | MIC (Bacteroides fragilis; [18]) | MIC (Propionibacterium acnes; read-out: Minimum inhibitory concentration, clinical isolate MIC clindamycin 0.5 mg/L)
